Test results taken from patent publication US20070071717A1, “Treatment of B cells with IL-21 and B cell activators induces Granzyme B production” (University of Iowa Research Foundation, priority 2005, published 2007).

Key:
IL-21 receptor = experiment: Flow cytometry of IL-21 receptor protein on B-CLL cells; format: cell-based, human; settings: after 4 and 7 days of incubation, ODN 2.5 μg/ml, FACS
Method: (§1) Flow cytometry. Antibodies to CD5, CD19, CD27 as well as CD107a were purchased from BD Bioscoences (San Diego, Calif.). IL-21 receptor protein expression was detected using a mAB (clone 152512) from R&D Systems (Minneapolis, Minn.). PKH26 staining was used to identify untreated cells in bystander assays. B-CLL cells were resuspended at a density of 1×10^7 cells/ml in diluent C containing 2 μM PKH26 (both from Sigma, Saint Louis, Mo.). After 3 minutes, the reaction was stopped by adding an equal volume of FBS (HyClone, Ogden, Utah). Subsequently cells were washed 3 times and finally resuspended in AIM-V medium. For flow cytometric Granzyme and Perforin detection, cells were incubated at 1×10^6/ml for 13 hrs, Brefeldin A (Epicentre Technologies, Madison, Wis.) added to a final concentration of […], and cells cultured for 5 more hours. Intracellular staining was performed using a Fix and Perm kit (Caltag Laboratories, Burlingame, Calif.) according to the manufacturer's instructions. Briefly, cells were washed once and resuspended in Fixation Buffer, incubated for 15 minutes at room temperature and washed with PBS. […] Flow cytometric analyses were performed on a FACScan (Becton Dickinson Immunocytometry Systems, San Jose, Calif.) and data analyzed using the program FlowJo (version 6.4.1, Tree Star Inc., Stanford, Calif.).

[1] = system: Daudi cells (pre-B cell line); experiment: IFN-γ ELISpot with Daudi cells; format: cell-based; settings: 10^5 cells/well, 16 hours
Method: Daudi cells (pre-B cell line) were incubated on IFN-γ-ELISpot plates in the presence of IL-21, CpG ODN, B cell receptor stimulation or various combinations at a cell concentration of 10^5 cells/well. After 16 hours plates were developed and analyzed.

[2] = system: untreated, bystander B-CLL cells; experiment: Bystander cell killing assay with autologous B-CLL cells; format: cell-based, human; settings: 24 hours treatment, washed, 2 days co-culture
Method: Bystander cell assay. Cells were harvested from CLL subjects and separated into aliquots. One aliquot was treated with CpG ODN, IL-21 or both, while a second was untreated but labeled with a membrane dye. Both aliquots were washed thoroughly, and mixed together in the indicated ratio. Cells were harvested after two days, and the number of viable cells in each aliquot determined by gating on the stained or unstained cells.
Flow cytometry. Antibodies to CD5, CD19, CD27 as well as CD107a were purchased from BD Bioscoences (San Diego, Calif.). IL-21 receptor protein expression was detected using a mAB (clone 152512) from R&D Systems (Minneapolis, Minn.). PKH26 staining was used to identify untreated cells in bystander assays. B-CLL cells were resuspended at a density of 1×10^7 cells/ml in diluent C containing 2 μM PKH26 (both from Sigma, Saint Louis, Mo.). […] Flow cytometric analyses were performed on a FACScan (Becton Dickinson Immunocytometry Systems, San Jose, Calif.) and data analyzed using the program FlowJo (version 6.4.1, Tree Star Inc., Stanford, Calif.).
B-CLL cells treated with CpG ODN and IL-21 can kill untreated autologous cells. […] The inventors next evaluated whether B-CLL cells treated with IL-21 and CpG ODN have the potential to kill. […] The survival of the unstained, untreated cells was then evaluated by flow cytometry.

benign B cells = experiment: Apoptosis / cell survival assay of benign B cells; format: cell-based, human; settings: 3 days of culture
Method: (§2) Apoptosis and cell survival assay. Cells were harvested at the indicated time points by staining all cells from a given well with mAb for CD19, CD5 and FITC-labeled Annexin V (BD Biosciences, San Diego, Calif.). A predetermined number of calibration beads (CaliBRITE™ Beads, BD Biosciences, San Diego, Calif.) were then added to each sample to allow for normalization of cell counts in different samples at different time points. Flow cytometric apoptosis assays. Cells were stained with Annexin V (BD Biosciences, San Diego, Calif.), or cell-permeable fluorogenic substrates specific for Granzyme B or Caspase 6 for 1 hour at room temperature according to the manufacturer's instructions (Oncolmmunin, Gaithersburg. Md.). A pre-determined number of calibration beads (CaliBRITE™ Beads, BD Biosciences, San Diego, Calif.) was added to each sample to allow for normalization of cell counts at different time points. Propidium iodide at 1 μg/ml was added just prior to flow cytometric analysis. The count of viable cells rather than the count of apoptotic cells was used for the calculation of cell survival because of concerns some non-viable cells may have undergone lysis and not have been available for counting. Absolute cell survival was expressed as percentage of viable cell counts relative to initial plating counts.

B-CLL cells [3] = experiment: Flow cytometric apoptosis / cell survival assay (Annexin V, PI) of B-CLL cells; format: cell-based, human
Method: Apoptosis and cell survival assay. Cells were harvested at the indicated time points by staining all cells from a given well with mAb for CD19, CD5 and FITC-labeled Annexin V (BD Biosciences, San Diego, Calif.). A predetermined number of calibration beads (CaliBRITE™ Beads, BD Biosciences, San Diego, Calif.) were then added to each sample to allow for normalization of cell counts in different samples at different time points.
as §2, with “Flow” for “Apoptosis and cell survival assay. Cells were harvested at the indicated time points by staining all cells from a given well with mAb for CD19, CD5 and FITC-labeled Annexin V (BD Biosciences, San Diego, Calif.). A predetermined number of calibration beads (CaliBRITE™ Beads, BD Biosciences, San Diego, Calif.) were then added to each sample to allow for normalization of cell counts in different samples at different time points. Flow”

Purified B cells = experiment: RT-PCR for granzyme B and perforin in purified B cells; format: cell-based, human; settings: 18 hours, with or without anti-BCR antibodies
Method: Purified B cells (purity >99.9%) were cultured for 18 hours in the presence or absence of IL-21 and B cell receptor stimulation (anti-BCR antibodies). Subsequently RNA was isolated and real time RT-PCR with specific primers and probes for granzyme B and perforin was performed. In addition to real time RT-PCR, conventional RT-PCR was also performed and PCR products were run on a gel. The expected amplicon sized are 218 bp (base pairs) and 146 bp for granzyme B and perforin respectively.

B-CLL cells [4] = experiment: Intracellular flow cytometry for Granzyme B, Granzyme A and Perforin in B-CLL cells; format: cell-based, human; settings: 18 hours, Brefeldin A for the last hours
Method: Flow cytometry. […] For flow cytometric Granzyme and Perforin detection, cells were incubated at 1×10^6/ml for 13 hrs, Brefeldin A (Epicentre Technologies, Madison, Wis.) added to a final concentration of 1 mg/ml, and cells cultured for 5 more hours. Intracellular staining was performed using a Fix and Perm kit (Caltag Laboratories, Burlingame, Calif.) according to the manufacturer's instructions. Briefly, cells were washed once and resuspended in Fixation Buffer, incubated for 15 minutes at room temperature and washed with PBS. Cells were then resuspended in Permeabilization Buffer and PE- or FITC-labeled antibodies to Granzyme B (clone GB12; Caltag Laboratories), Perforin (clone dG9; BD Pharmingen), Granzyme A (clone CB9; BD Pharmingen) or suitable control antibodies were added. After another 15 minute incubation at room temperature, cells were washed with PBS. Flow cytometric analyses were performed on a FACScan (Becton Dickinson Immunocytometry Systems, San Jose, Calif.) and data analyzed using the program FlowJo (version 6.4.1, Tree Star Inc., Stanford, Calif.).

[5] = system: benign peripheral blood B cells; experiment: Granzyme B flow cytometry and ELISpot with purified benign peripheral B cells; format: cell-based, human
Method: as §1, with “hours.” for “hours. Intracellular staining was performed using a Fix and Perm kit (Caltag Laboratories, Burlingame, Calif.) according to the manufacturer's instructions. Briefly, cells were washed once and resuspended in Fixation Buffer, incubated for 15 minutes at room temperature and washed with PBS.”
Elispot assays for human Granzyme B and Perforin. […] Plates were dried completely, and spots read on an Immunospot Series 1 Analyzer and counted using Immunospot 3 software, both from C.T.L. Cellular Technology Ltd. (Cleveland, Ohio).

Substance | IL-21 receptor protein levels on B-CLL cells (IL-21 receptor) | secretion of interferon-γ by Daudi cells [1] | killing of untreated autologous bystander B-CLL cells by treated B-CLL cells [2] | apoptosis of benign B cells (benign B cells) | apoptosis of B-CLL cells (B-CLL cells [3]; 4 days, Annexin V and PI) | ED50 to induce apoptosis of B-CLL cells (B-CLL cells [3]; agent alone, 4 days) | apoptosis of CD5-negative, atypical B-CLL (B-CLL cells [3]; preliminary, unpublished results) | transcription of the gene for granzyme B in B cells (Purified B cells) | transcription of the gene for perforin in B cells (Purified B cells) | Granzyme B(+) B-CLL cells, flow cytometry gating on CD19(+) (B-CLL cells [4]) | Granzyme B expression by highly purified (99.9%) benign B cells [5]
control ODN: phosphorothioate-phosphodiester-modified control oligodeoxynucleotide 2243, 5′-GGGGGAGCATGCTGGGGGGG-3′ (SEQ ID NO:5) (DNA GGGGGAGCATGCTGGGGGGG; DNA, backbone and methylation of C not given here; phosphorothioate-phosphodiester chimeric backbone) | no detectable effect |  |  |  |  |  |  |  |  |  | 
IL-21: cytokine of 131 residues (SEQ ID NO:1); Human IL-21 purchased from BioSource |  | induces the secretion | No such bystander effect | Neither IL-21 alone nor IL-21 plus CpG ODN induced apoptosis | induced some apoptosis | 0.04 µg/mL | do not undergo apoptosis | induces transcription | induces transcription | rare Granzyme B(+) B cells | induced expression of Granzyme B
